Reference: patent US11111463B2, “Solid cleansing compositions with taurine and methods thereof” (Colgate-Palmolive Company, priority 2016, dated 2021)

Experiment: MTT colorimetric assay, dose response, cell viability
Format: cell-based
Conditions: human, HaCat cells, untreated = 100
Protocol: An MTT colorimetric assay (HaCat Cells) dose response experiment was conducted to analyze cell viability, or the percentage of cells present after treatment. Particularly, the MTT colorimetric assay was conducted to determine cell viability of the anhydrous 2:1 urea to taurine ionic liquid (2) of Example 1 in comparison to taurine. The HaCat Cells were 60-70% confluent, and a PBS buffer was used for serial volumetric dilutions. The results of the MTT colorimetric assay are summarized in Table 6, and highlight the effectiveness of the ionic liquid form. Cell viability greater than 100% indicates cell growth or proliferation, and cell viability less than 100% indicates cell death.

Structure (SMILES): NCCS(=O)(=O)O [Taurine, 2-aminoethanesulfonic acid]
- viability at 1e-05 w/w % (concentration of taurine 0.00001 w/w %): 137%
- viability at 0.0001 w/w % (concentration of taurine 0.00010 w/w %): 120%
- viability at 0.001 w/w % (concentration of taurine 0.00100 w/w %): 141%
- viability at 0.01 w/w % (concentration of taurine 0.01000 w/w %): 147%
- viability at 0.1 w/w % (concentration of taurine 0.10000 w/w %): 99%
